In PMC10460844, “Real‐Time Monitoring of Multitarget Antimicrobial Mechanisms of Peptoids Using Label‐Free Imaging with Optical Diffraction Tomography” (Advanced Science, 2023):
Square brackets hold non-standard residues; d marks the D form. Peptide text beside a SMILES is read from it. Gly(N(CH2)2(3-indolyl)) = O=C(O)CNCCc1c[nH]c2ccccc12; Nspe = C[C@H](NCC(=O)O)c1ccccc1; Nlys = NCCCCNCC(=O)O

Assays:
Type in all cases: cell-based
[1] = test system: HaCaT human keratinocytes; assay: MTS cytotoxicity assay; settings: 24 h exposure in DMEM, concentration killing 50% of cells
Method: 4. Cell culture and cytotoxicity test using MTS assay
(Seoul, South Korea), human keratinocytes (HaCaT) were provided by the Skin Research Institute R&D Center of Amore Pacific Company (Yongin, South Korea). All cells were grown in Dulbecco's modified Eagle’s medium (DMEM) supplemented with 10% fetal bovine serum at 37 °C in an atmosphere containing 5% CO2. The 3-(4,5-dimethylthiazol-2- […]
assays were used to determine the effects of peptoids on cell growth.[4] Aliquots (100 µL) of media containing 1.3×10^4 MRC-5 cells/mL or 3×10^4 HaCaT cells/mL were distributed into each well of a 96-well plate (Eppendorf, Hamburg, Germany). The cells were allowed to attach and were grown in a humidified atmosphere containing 5% CO2 at 37 °C for 24 h.
When the cell density reached approximately 70% confluency, the medium was replaced with serial dilutions of the peptoid stock in DMEM and incubated for an additional 24 h. […] The MTS-formazan products in viable cells were measured at 490 nm using a microplate reader, and the percentage of cell viability (%) was calculated by comparing readings to the values of untreated wells. Percentage values of cell viability were calculated as A/(A control)×100, where A is the absorbance of the test well and A control is the average absorbance of wells containing untreated cells. […]

E. coli ATCC 25922 [2] = assay: Bacterial respiration assay (oxygen consumption rate); settings: at MIC concentration, Seahorse XFe96, M9 + 10 mM glucose
Method: 11. Bacterial respiration assay
Figure S12. Real-time changes in oxygen consumption rate (OCR, in picomoles of molecular oxygen per minute) in response to treatment with peptoid 29, ampicillin (Amp), and chloramphenicol (Cam) in E. coli measured on a Seahorse XFe 96 extracellular flux analyzer.
OCR changes in cells treated with 29 over time (2.5 min intervals). b) Comparison of OCR responses induced by 29, Amp, and Cam treatment detected at 2.5 min intervals. The vertical line with azure color indicates the injection point of each antibiotic into the cultures. All data represent the mean ± SEM of 5-8 replicates.
Bacterial respiration assays
Cellular oxygen consumption rate (OCR) of E. coli ATCC 25922 was measured using a Seahorse XFe96 Extracellular Flux Analyzer (Agilent) as published previously.[9] Briefly, after overnight culture in LB, bacterial cells were diluted 1:200 into fresh M9 media (M6030, Sigma) and incubated for an additional 3 h at 37 °C. To conduct the measurements, bacteria were diluted to OD600 of 0.02 in M9 supplemented with 10 mM glucose. 90 μL of this cell suspension was loaded into a 96-well microplate precoated with poly-D-lysine (100 μg/mL, Sigma). […] OCR values were quantified every 2.5 min (mix and measure for 30 sec and 2 min, respectively) for an additional 48 cycles, and normalized to bacterial density […]

E. coli ATCC 25922 [3] = settings: ODT, 30 min treatment; buforin-II 25 µM, melittin 25 µM, 29 4 × MIC
Method: Three‐dimensional (3D) optical diffraction tomography (ODT) and fluorescence images of live bacterial cells were obtained using an HT‐2H Mach−Zehnder interferometric microscope, combining both ODT and fluorescence imaging into a single unit (Tomocube, Daejon, South Korea). 3D Fluorescence imaging was carried out, using three light sources (385, 470, and 565 nm) via serial fluorescence image acquisition in multiple planes followed by 3D deconvolution. 3D correlative imaging, using a combination of ODT and fluorescence imaging was performed using commercial software (TomoStudioTM, Tomocube) as described previously^[ [23c] ^] Bacterial cells were grown overnight and diluted (≈10^7 CFU mL^−1) in cation‐adjusted MHB2 media. The cells were loaded onto 50 mm imaging dishes with a #1.5H glass coverslip bottom (TomoDish, Tomocube) that were precoated with 0.01% (w/v) poly‐L‐lysine (Sigma‐Aldrich) in water. After 30 min incubation at room temperature, the coverslips were washed twice with PBS (pH 7.4) to remove unattached cells, and the media was replaced with PBS for the duration of the imaging. To monitor the change in bacterial morphology, bacterial cells were treated with a peptoid (or with control AMPs) in PBS containing FM4‐64 (10 µg mL^−1) or propidium iodide (10 µg mL^−1). To analyze 3D refractive index (RI) tomograms, individual bacteria were captured using ODT equipped with a digital micromirror device (Tomocube). In more detail, the light scattered by the bacterial cells was collected by an objective lens (NA = 1.2, water dipping, UPLSAPO 60XW, Olympus) and recorded by a digital image sensor (CMOS camera, FL3‐U313Y3M‐C, FLIR Systems). Using a field retrieval algorithm, the amplitude and phase images were retrieved from the obtained multiple holograms, and then the 3D RI distribution was determined.
The analysis tool in the TomoStudio software (Tomocube) was used to measure specific values, including the refractive index (RI) and the cell volume of bacteria. These values were determined from RI increments (RII) of 0.190 fL pg^−1, which is known as a representative value and was assumed to be the same for most proteins.^[ [46] ^]

| SMILES | LC50 HaCaT [1] | time after which OCR converged to zero (E. coli ATCC 25922 [2]) | change of cell volume (E. coli ATCC 25922 [3]) | change of mean RI value versus control cells (E. coli ATCC 25922 [3]) |
| --- | --- | --- | --- | --- |
| C[C@@H](c1ccccc1)N(CC(N)=O)C(=O)CN(C(=O)CN(CCCCN)C(=O)CN(C(=O)CN(C(=O)CN(CCCCN)C(=O)CN(C(=O)CN(C(=O)CN(CCCCN)C(=O)CN(C(=O)CN(C(=O)CNCCCCN)[C@@H](C)c1ccccc1)[C@@H](C)c1ccccc1)[C@@H](C)c1ccccc1)[C@@H](C)c1ccccc1)[C@@H](C)c1ccccc1)[C@@H](C)c1ccccc1)[C@@H](C)c1ccccc1 [peptoid 1, reference compound] (H-[Nlys][Nspe][Nspe][Nlys][Nspe][Nspe][Nlys][Nspe][Nspe][Nlys][Nspe][Nspe]-NH2) | 7.3 µM | – | – | – |
| C[C@@H](c1ccccc1)N(CC(=O)N(CCCCN)CC(=O)N(CCc1c[nH]c2ccccc12)CC(=O)N(CCc1c[nH]c2ccccc12)CC(N)=O)C(=O)CN(CCCCN)C(=O)CN(CCCCN)C(=O)CN(C(=O)CN(C(=O)CN(CCCCN)C(=O)CN(C(=O)CN(C(=O)CNCCCCN)[C@@H](C)c1ccccc1)[C@@H](C)c1ccccc1)[C@@H](C)c1ccccc1)[C@@H](C)c1ccccc1 [peptoid 29] (H-[Nlys][Nspe][Nspe][Nlys][Nspe][Nspe][Nlys][Nlys][Nspe][Nlys][Gly(N(CH2)2(3-indolyl))][Gly(N(CH2)2(3-indolyl))]-NH2) | – | 30 min | notable reduction in cell volume | significantly increased mean RI values |
